This is an account of results in patent publication US10125105B2, “Triazabutadienes as cleavable cross-linkers” (ARIZONA BOARD OF REGENTS ON BEHALF OF THE UNIVERSITY OF …, priority 2014, dated 2018).

Data set [1] is described as follows: pH-dependent decomposition to diazonium salts in buffers by NMR. The note with it: phosphate/citrate buffers pH 4-7, phosphate buffer pH 6-8. The data set is classed as physicochemical. As for the experimental part: (§1) For decomposition experiments, buffers were made to the appropriate pH in a 9:1 mix of H2O:D2O. These solutions were added to the compound being assayed such that the buffer capacity was at least 10 fold the concentration of the compound. Some experiments used 5 mg compound in 0.5 mL of buffer. These were immediately inserted into an NMR instrument and scans were taken at even time intervals to calculate the half-life of the compound based on integration.
As mentioned above, Compound 6c was reasonably stable in pure D20. Upon adjusting the pH to 5 with HCl, a rapid initial consumption of Compound 6c to Compound 7 (see FIG. 6E) and a benzenediazonium salt was noted. After this initial burst of reactivity, a slowing and apparent arresting of the reaction was noted. At this pH the hydronium was the limiting reagent. All future reactions were run in buffers with a buffer capacity sufficient to maintain a large excess of hydronium ions. The experiments were performed in 90:10 H2O:D2O buffered solutions to minimize considerations of pH vs. pD. The decomposition to diazonium salts and Compound 7 was measured as a function of pH in phosphate/citrate buffers from pH 4-7 and in a phosphate buffer from pH 6-8. All runs provided linear correlations of concentration and time, indicating a pseudo-zero order reaction (first order with respect to hydronium ion with a large excess of hydronium ions). […]

The nature of data set [2]: Stability in D2O / water in the dark by NMR. Type of data set: physicochemical. As for the experimental part:
as §1
To render the triazabutadiene water-soluble, methyl imidazole was alkylated with propane sultone to provide the Zwitterionic NHC precursor Compound 5a (see FIG. 6E). […] Compound 6a was highly colored, so its pH dependence was studied using UV/Vis. The reactions were not only pH-, but also scan-frequency dependent. […] Even in the dark it was unstable, but not in the diazonium-forming way. Both Compound 6b and a more hindered mesityl (Mes) substituted Compound 6c (see FIG. 6E) were synthesized to stabilize what was initially considered to be a rearrangement pathway that could be blocked by steric repulsion. […] It is not yet clear that the hypothesis of a simple rearrangement was correct. […]
As mentioned above, Compound 6c was reasonably stable in pure D20. […] The decomposition to diazonium salts and Compound 7 was measured as a function of pH in phosphate/citrate buffers from pH 4-7 and in a phosphate buffer from pH 6-8. […]

Some results are limits rather than exact numbers.

Take `Cc1cc(C)c(-n2ccn(CCCS(=O)(=O)[O-])c2=NN=Nc2ccccc2)c(C)c1.[K+]` [Compound 6c, Potassium 3-(3-mesityl-2-(phenyltriaz-2-en-1-ylidene)-2,3-dihydro-1H-imidazol-1-yl) propane-1-sulfonate]: in data set [1], the “centre of sigmoidal correlation between decomposition rate and buffer pH” value stood at 6 pH. Besides, the “compound consumed after 24 hours” value in data set [2] (D2O, in the dark, room temperature, NMR) is “less than 10%”. Further, in data set [2] (non-buffered 90:10 H2O:D2O solution), the “compound consumed after 6 hours” value was > 7%.
